From ChEMBL document CHEMBL4041523, “Design, synthesis, and evaluation of asymmetric EF24 analogues as potential anti-cancer agents for lung cancer” (Eur J Med Chem, 2017)
The source made the active and inactive calls. The rule behind the calls is not given here.

Tests used:
[1] = tested on: Lewis lung carcinoma cell line; assay: Cytotoxicity against mouse LLC cells measured after 72 hrs by MTT assay; assay type: functional, cell-based
NCI-H1650 = assay: Cytotoxicity against human NCI-H1650 cells measured after 72 hrs by MTT assay; assay type: functional, cell-based; conditions: NCI-H1650, 72 h
A549 [2] = assay: Cytotoxicity against human A549 cells measured after 72 hrs by MTT assay; assay type: functional, cell-based; conditions: for IC50: A549, 72 h
A549 [3] = assay: Induction of apoptosis in human A549 cells assessed as increase in Bax expression at 10 uM in presence of ROS inhibitor NAC measured after 24 hrs Western blot analysis; assay type: functional, cell-based
[4] = target: T1, NF-kappa-B inhibitor alpha (Homo sapiens) (UniProt P25963); assay: Inhibition of TNF-alpha induced IkappaBalpha degradation in human A549 cells measured after 24 hrs by Western blot analysis; assay type: cell-based
T1 sequence (whole entry): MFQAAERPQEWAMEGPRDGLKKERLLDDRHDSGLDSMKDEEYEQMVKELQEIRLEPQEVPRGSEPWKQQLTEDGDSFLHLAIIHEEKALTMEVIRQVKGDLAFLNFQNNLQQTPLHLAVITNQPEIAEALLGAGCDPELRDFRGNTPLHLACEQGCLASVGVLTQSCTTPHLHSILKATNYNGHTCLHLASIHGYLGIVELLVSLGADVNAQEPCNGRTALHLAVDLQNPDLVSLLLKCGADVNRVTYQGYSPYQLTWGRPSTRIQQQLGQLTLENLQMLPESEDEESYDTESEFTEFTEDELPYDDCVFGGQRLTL

A549 [5] = assay: Induction of apoptosis in human A549 cells assessed as increase in Bax expression at 10 uM measured after 24 hrs Western blot analysis; assay type: functional, cell-based
A549 [6] = assay: Anti-migratory activity against human A549 cells assessed as reduction in cell migration measured after 24 to 72 hrs by wound healing assay; assay type: functional, cell-based
A549 [7] = assay: Anti-migratory activity against human A549 cells assessed as reduction in cell migration at 20 uM measured after 24 to 72 hrs by wound healing assay relative to control; assay type: functional; set-up: scale not given: the % may be the effect or the level left
A549 [8] = assay: Induction of apoptosis in human A549 cells assessed as reduction in Bcl-2 expression at 10 uM in presence of ROS inhibitor NAC measured after 24 hrs Western blot analysis; assay type: functional, cell-based
A549 [9] = assay: Induction of apoptosis in human A549 cells assessed as chromatin condensation measured after 72 hrs by Hoechst 33258 staining based fluorescent microscopic analysis; assay type: functional, cell-based
A549 [10] = assay: Antiproliferative activity against human A549 cells assessed as reduction in colony formation measured after 7 days by crystal violet staining based assay; assay type: functional, cell-based
A549 [11] = assay: Induction of apoptosis in human A549 cells at 10 uM measured after 48 hrs by Annexin-V-FITC/propidium iodide staining based flow cytometry (reference value: 5.91 %); assay type: functional
A549 [12] = assay: Induction of apoptosis in human A549 cells at 20 uM measured after 48 hrs by Annexin-V-FITC/propidium iodide staining based flow cytometry (reference value: 5.91 %); assay type: functional
A549 [13] = assay: Induction of apoptosis in human A549 cells assessed as formation of apoptotic bodies measured after 72 hrs by Hoechst 33258 staining based fluorescent microscopic analysis; assay type: functional, cell-based
A549 [14] = assay: Induction of apoptosis in human A549 cells assessed as increase in cleaved caspase-3 level at 20 uM measured after 24 hrs by Western blot analysis; assay type: functional, cell-based
A549 [15] = assay: Anti-migratory activity against human A549 cells assessed as reduction in cell migration at 10 uM measured after 24 to 72 hrs by wound healing assay relative to control; assay type: functional; set-up: scale not given: the % may be the effect or the level left
A549 [16] = assay: Induction of apoptosis in human A549 cells assessed as reduction in Bcl-2 expression at 10 uM measured after 24 hrs Western blot analysis; assay type: functional, cell-based
[17] = target: T2, c-Jun N-terminal kinase, JNK (Homo sapiens) (UniProt P45983+P53779+P45984); assay: Induction of ROS-induced JNK phosphorylation in human A549 cells at 10 uM in presence of ROS inhibitor NAC measured after 24 hrs Western blot analysis; assay type: cell-based
A549 [18] = assay: Induction of apoptosis in human A549 cells measured after 48 hrs by Annexin-V-FITC/propidium iodide staining based flow cytometry; assay type: functional, cell-based
[19] = target: Transcription factor p65 (Homo sapiens) (UniProt Q04206); assay: Inhibition of TNF-alpha stimulated P65 nuclear translocation in human A549 cells at 10 uM pretreated for 2 hrs followed by TNF-alpha induction measured after 20 mins DAPI-staining based assay; assay type: cell-based
Sequence of Transcription factor p65 (Homo sapiens) (Q04206 whole entry): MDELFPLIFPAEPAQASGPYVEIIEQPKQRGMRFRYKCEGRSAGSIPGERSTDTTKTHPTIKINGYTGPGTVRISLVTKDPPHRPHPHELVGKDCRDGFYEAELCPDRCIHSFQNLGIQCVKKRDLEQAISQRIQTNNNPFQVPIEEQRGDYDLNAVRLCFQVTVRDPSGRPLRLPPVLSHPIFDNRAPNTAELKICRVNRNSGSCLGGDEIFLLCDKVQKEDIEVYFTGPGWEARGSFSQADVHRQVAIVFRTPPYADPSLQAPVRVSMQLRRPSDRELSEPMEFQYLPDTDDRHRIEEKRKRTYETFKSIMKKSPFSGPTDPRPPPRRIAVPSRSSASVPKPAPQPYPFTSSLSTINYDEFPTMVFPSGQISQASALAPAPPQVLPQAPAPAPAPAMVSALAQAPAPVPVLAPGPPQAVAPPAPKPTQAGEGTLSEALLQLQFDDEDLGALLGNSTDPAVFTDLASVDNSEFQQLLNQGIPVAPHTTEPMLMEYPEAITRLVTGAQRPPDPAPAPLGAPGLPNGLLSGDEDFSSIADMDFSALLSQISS

A549 [20] = assay: Induction of apoptosis in human A549 cells assessed as increase in Bax expression measured after 24 hrs by Western blot analysis; assay type: functional, cell-based
A549 [21] = assay: Induction of apoptosis in human A549 cells assessed as cell shrinkage measured after 72 hrs by Hoechst 33258 staining based fluorescent microscopic analysis; assay type: functional
A549 [22] = assay: Induction of apoptosis in human A549 cells assessed as increase in ROS production at 10 uM by DCFH-DA staining based flow cytometry; assay type: functional, cell-based; conditions: TDE = time-dependent effect
A549 [23] = assay: Induction of apoptosis in human A549 cells at 5 uM measured after 48 hrs by Annexin-V-FITC/propidium iodide staining based flow cytometry (reference value: 5.91 %); assay type: functional
[24] = target: T2, c-Jun N-terminal kinase, JNK (Homo sapiens); assay: Induction of ROS-induced JNK phosphorylation in human A549 cells at 10 uM measured after 24 hrs by Western blot analysis; assay type: cell-based
A549 [25] = assay: Induction of apoptosis in human A549 cells assessed as ROS production at 10 uM in presence of ROS inhibitor NAC measured after 12 hrs by DCFH-DA staining based flow cytometry (reference value: 7.19 %); assay type: functional
A549 [26] = assay: Anti-migratory activity against human A549 cells assessed as reduction in cell migration at 5 uM measured after 24 to 72 hrs by wound healing assay relative to control; assay type: functional; set-up: scale not given: the % may be the effect or the level left
A549 [27] = assay: Induction of apoptosis in human A549 cells assessed as reduction in Bcl-2 expression measured after 24 hrs by Western blot analysis; assay type: functional, cell-based
A549 [28] = assay: Induction of apoptosis in human A549 cells assessed as ROS production at 10 uM measured after 12 hrs by DCFH-DA staining based flow cytometry (reference value: 7.19 %); assay type: functional

## O=C1/C(=C/c2ccccc2F)COC/C1=C\c1ccccc1C(=O)O
[1]
  IC50: 17.2 µM
NCI-H1650
  IC50: 15.2 µM
A549 [2]
  IC50: 27.9 µM

## O=C1/C(=C/c2cccc(O)c2)COC/C1=C\c1ccccc1F
[1]
  IC50: 13.8 µM
NCI-H1650
  IC50: 5.7 µM
A549 [2]
  IC50: 7.4 µM

## COc1cc(/C=C2\COC/C(=C\c3ccccc3F)C2=O)ccc1O
[1]
  IC50: 13.1 µM
NCI-H1650
  IC50: 18.5 µM
A549 [2]
  IC50: 21.4 µM

## O=C1/C(=C/c2ccccc2F)CNC/C1=C\c1ccccc1F
[1]
  IC50: 8.4 µM
NCI-H1650
  IC50: 14.6 µM
A549 [2]
  IC50: 7.1 µM

## O=C1/C(=C/c2ccccc2)COC/C1=C\c1ccccc1F
[1]
  IC50: 16 µM
NCI-H1650
  IC50: 9.6 µM
A549 [2]
  IC50: 17.6 µM

## COc1cc(/C=C2\COC/C(=C\c3ccccc3F)C2=O)cc(OC)c1OC
A549 [3]
  Activity: inactive
[4]
  inhibition: Dose-dependent effect
A549 [5]
  Activity: Active
A549 [6]
  Activity: Dose-dependent effect
A549 [7]
  Activity: 37.9%
A549 [8]
  Activity: inactive
A549 [9]
  Activity: Dose-dependent effect
A549 [10]
  Activity: Dose-dependent effect
A549 [11]
  Activity: 9.26%
A549 [12]
  Activity: 20.4%
A549 [13]
  Activity: Dose-dependent effect
[1]
  IC50: 6.1 µM
A549 [14]
  Activity: Active
A549 [15]
  Activity: 68.7%
A549 [16]
  Activity: Active
[17]
  Activity: inactive
A549 [18]
  Activity: Dose-dependent effect
[19]
  inhibition: Active
A549 [20]
  Activity: Dose-dependent effect
NCI-H1650
  IC50: 6.8 µM
A549 [21]
  Activity: Dose-dependent effect
A549 [22]
  Activity: Tde
A549 [23]
  Activity: 6.55%
[24]
  Activity: Active
A549 [2]
  Activity: Dose-dependent effect
  IC50: 6.3 µM
A549 [25]
  Activity: 5.19%
A549 [26]
  Activity: 82.2%
A549 [27]
  Activity: Dose-dependent effect
A549 [28]
  Activity: 9.81%

## COc1ccccc1/C=C1\COC/C(=C\c2ccccc2F)C1=O
[1]
  IC50: 15.4 to 17.7 µM
NCI-H1650
  IC50: 6.5 to 17.6 µM
A549 [2]
  IC50: 5.9 to 11.7 µM

## Cc1ccc2nc(NCCN)c3ncc(C)n3c2c1 [BMS-345541]
A549 [12]
  Activity: 16.57%
[1]
  IC50: 4.8 µM
NCI-H1650
  IC50: 19.9 µM
A549 [2]
  IC50: 5.6 µM

## COc1ccc(/C=C2\COC/C(=C\c3ccccc3F)C2=O)cc1O
[1]
  IC50: 9.6 µM
NCI-H1650
  IC50: 7.5 µM
A549 [2]
  IC50: 13.8 µM

## COc1cc(/C=C/C(=O)CC(=O)/C=C/c2ccc(O)c(OC)c2)ccc1O [CURCUMIN]
[1]
  IC50: 24.7 µM
NCI-H1650
  IC50: 20.7 µM
A549 [2]
  IC50: 27.8 µM

## COc1ccc(OC)c(/C=C2\COC/C(=C\c3ccccc3F)C2=O)c1
[1]
  IC50: 15.1 µM
NCI-H1650
  IC50: 6.8 µM
A549 [2]
  IC50: 8.7 µM

## O=C1/C(=C/c2ccccc2F)COC/C1=C\c1ccc(Cl)cc1Cl
[1]
  IC50: 29.4 µM
NCI-H1650
  IC50: 8.6 µM
A549 [2]
  IC50: 7.9 µM

## O=C1/C(=C/c2ccccc2F)COC/C1=C\c1ccccc1Br
[1]
  IC50: 13.3 µM
NCI-H1650
  IC50: 6.5 µM
A549 [2]
  IC50: 6.5 µM
